Measurements: US20170159101A1, “DRUG-RESISTANT P97 ATPASE MUTATIONS” (Cleave Biosciences, Inc., priority 2014, published 2017)

Columns and labels:
[1] = test system: Hct116 resistant cell line clone #5 (p97 D649A); settings: Clone #5, Hct116, resistance generated with compound 2, A1946C / D649A; 72 hrs
[2] = test system: Hct116 resistant cell line clone #8 (p97 N660D); experiment: GI50 fold-change, resistant clone #8 vs parental; format: cell-based, human; settings: Clone #8, Hct116, resistance generated with compound 3, A1978G / N660D; 72 hrs
Method: (§1) Dose titration of test compounds were conducted in Hct116, DLD-1, or LoVo cell lines. In brief, cells were plated in 384-well plates and a selected candidate drug compound was added in a 10-point 2-fold serial dilution.

[3] = test system: Hct116 resistant cell line clone #45 (p97 F539I); experiment: GI50 fold-change, resistant clone #45 vs parental; format: cell-based, human; settings: Clone #45, Hct116, resistance generated with compound 4, T1615A / F539I; 72 hrs
Method: as §1

[4] = test system: Hct116 resistant cell line clone #90 (p97 Q473P); experiment: GI50 fold-change, resistant clone #90 vs parental; format: cell-based, human; settings: Clone #90, Hct116, resistance generated with compound 4, A1418C / Q473P; 72 hrs
Method: as §1

[5] = test system: Hct116 resistant cell line clone #47 (p97 E498D); experiment: GI50 fold-change, resistant clone #47 vs parental; format: cell-based, human; settings: Clone #47, Hct116, resistance generated with compound 4, G1494T / E498D; 72 hrs
Method: as §1

[6] = test system: DLD-1 resistant cell line clone #87 (p97 S541P); experiment: GI50 fold-change, resistant clone #87 vs parental; format: cell-based, human; settings: Clone #87, DLD-1, resistance generated with compound 4, T1621T/C / S541P; 72 hrs
Method: as §1

[7] = test system: DLD-1 resistant cell line clone #61 (p97 I620I/L); experiment: GI50 fold-change, resistant clone #61 vs parental; format: cell-based, human; settings: Clone #61, DLD-1, resistance generated with compound 4, T1859T/C / I620I/L; 72 hrs
Method: as §1

[8] = test system: LoVo resistant cell line clone #221 (p97 V474V/A); experiment: GI50 fold-change, resistant clone #221 vs parental; format: cell-based, human; settings: Clone #221, LoVo, resistance generated with compound 4, T1421C/T / V474V/A; 72 hrs
Method: (§2) Dose titration of test compounds were conducted in Hct116, DLD-1, or LoVo cell lines. In brief, cells were plated in 384-well plates and a selected candidate drug compound was added in a 10-point 2-fold serial dilution. […] Hct116 cells were plated at 50,000 cells per 15 cm dish and treated with GI50-GI90 doses of test compound for 2-4 weeks until individual colonies of cells were visible on the plate.

[9] = test system: Hct116 resistant cell line clone #7 (p97 A659T); settings: Clone #7, Hct116, resistance generated with compound 3, G1975A / A659T; 72 hrs
[10] = test system: Hct116 resistant cell line clone #139 (p97 P472S); experiment: GI50 fold-change, resistant clone #139 vs parental; format: cell-based, human; settings: Clone #139, Hct116, resistance generated with compound 4, C1414T / P472S; 72 hrs
Method: as §1

[11] = test system: Hct116 resistant cell line clone #108 (p97 P646T); experiment: GI50 fold-change, resistant clone #108 vs parental; format: cell-based, human; settings: Clone #108, Hct116, resistance generated with compound 4, C1936A / P646T; 72 hrs
Method: as §2

[12] = test system: DLD-1 resistant cell line clone #58 (p97 D649D/N); experiment: GI50 fold-change, resistant clone #58 vs parental; format: cell-based, human; settings: Clone #58, DLD-1, resistance generated with compound 4, G1945G/A / D649D/N; 72 hrs
Method: as §1

[13] = test system: Hct116 resistant cell line clone #117 (p97 L482I); experiment: GI50 fold-change, resistant clone #117 vs parental; format: cell-based, human; settings: Clone #117, Hct116, resistance generated with compound 4, C1444A / L482I; 72 hrs
Method: as §1

[14] = test system: Hct116 resistant cell line clone #34 (p97 E470D/E); experiment: GI50 fold-change, resistant clone #34 vs parental; format: cell-based, human; settings: Clone #34, Hct116, resistance generated with compound 4, G1410T/G / E470D/E; 72 hrs
Method: as §1

[15] = test system: Hct116 resistant cell line clone #1 (p97 D649N); experiment: GI50 fold-change, resistant clone #1 vs parental; format: cell-based, human; settings: Clone #1, Hct116, resistance generated with compound 2, G1945A / D649N; 72 hrs
Method: as §1

[16] = test system: Hct116 resistant cell line clone #27 (p97 T688A); experiment: GI50 fold-change, resistant clone #27 vs parental; format: cell-based, human; settings: Clone #27, Hct116, resistance generated with compound 4, A2062G / T688A; 72 hrs
Method: as §1

[17] = test system: Hct116 resistant cell line clone #29 (p97 N660K); experiment: GI50 fold-change, resistant clone #29 vs parental; format: cell-based, human; settings: Clone #29, Hct116, resistance generated with compound 4, C1980A / N660K; 72 hrs
Method: as §1

[18] = test system: Hct116 resistant cell line clone #152 (p97 T688I); experiment: GI50 fold-change, resistant clone #152 vs parental; format: cell-based, human; settings: Clone #152, Hct116, resistance generated with compound 4, C2063T / T688I; 72 hrs
Method: as §2

[19] = test system: Hct116 resistant cell line clone #22 (p97 N660D); experiment: GI50 fold-change, resistant clone #22 vs parental; format: cell-based, human; settings: Clone #22, Hct116, resistance generated with compound 4, A1978G / N660D; 72 hrs
Method: as §1

[20] = test system: Hct116 resistant cell line clone #2 (p97 V474A); experiment: GI50 fold-change, resistant clone #2 vs parental; format: cell-based, human; settings: Clone #2, Hct116, resistance generated with compound 2, T1421C / V474A; 72 hrs
Method: as §1

[21] = test system: DLD-1 resistant cell line clone #83 (p97 N660N/D); experiment: GI50 fold-change, resistant clone #83 vs parental; format: cell-based, human; settings: Clone #83, DLD-1, resistance generated with compound 4, A1978G/A / N660N/D; 72 hrs
Method: as §1

[22] = test system: Hct116 resistant cell line clone #180 (p97 A569T); experiment: GI50 fold-change, resistant clone #180 vs parental; format: cell-based, human; settings: Clone #180, Hct116, resistance generated with compound 4, G1705A / A569T; 72 hrs
Method: as §1

[23] = test system: Hct116 resistant cell line clone #6 (p97 A528T); experiment: GI50 fold-change, resistant clone #6 vs parental; format: cell-based, human; settings: Clone #6, Hct116, resistance generated with compound 2, G1582 / A528T; 72 hrs
Method: as §1

Row | Structure (SMILES) | Fold Change in GI50 Compared to Parental Cell Line [1] [fold] | Fold Change in GI50 Compared to Parental Cell Line [2] [fold] | Fold Change in GI50 Compared to Parental Cell Line [3] [fold] | Fold Change in GI50 Compared to Parental Cell Line [4] [fold] | Fold Change in GI50 Compared to Parental Cell Line [5] [fold] | Fold Change in GI50 Compared to Parental Cell Line [6] [fold] | Fold Change in GI50 Compared to Parental Cell Line [7] [fold] | Fold Change in GI50 Compared to Parental Cell Line [8] [fold] | Fold Change in GI50 Compared to Parental Cell Line [9] [fold] | Fold Change in GI50 Compared to Parental Cell Line [10] [fold] | Fold Change in GI50 Compared to Parental Cell Line [11] [fold] | Fold Change in GI50 Compared to Parental Cell Line [12] [fold] | Fold Change in GI50 Compared to Parental Cell Line [13] [fold] | Fold Change in GI50 Compared to Parental Cell Line [14] [fold] | Fold Change in GI50 Compared to Parental Cell Line [15] [fold] | Fold Change in GI50 Compared to Parental Cell Line [16] [fold] | Fold Change in GI50 Compared to Parental Cell Line [17] [fold] | Fold Change in GI50 Compared to Parental Cell Line [18] [fold] | Fold Change in GI50 Compared to Parental Cell Line [19] [fold] | Fold Change in GI50 Compared to Parental Cell Line [20] [fold] | also measured
1 | CC(C)C[C@H](NC(=O)[C@H](Cc1ccccc1)NC(=O)c1cnccn1)B(O)O [Compound 1, [(1R)-3-methyl-1-[(2S)-3-phenyl-2-(pyrazin-2-ylformamido)propanamido]butyl]boronic acid, reference compound] | 1.0 | 0.8 | 0.8 | 1.2 | 0.8 | 1.1 | 0.8 | 0.9 | 0.9 | 1.0 | 0.9 | 1.3 | 0.8 | 0.8 | 1.0 | 1.1 | 0.9 | 1.0 | 1.0 | 1.0 | Fold Change in GI50 Compared to Parental Cell Line [21]: 1.2 fold; Fold Change in GI50 Compared to Parental Cell Line [22]: 0.8 fold; Fold Change in GI50 Compared to Parental Cell Line [23]: 1.1 fold
2 | Cc1cc2c(C(N)=O)cccc2n1-c1nc2c(c(NCc3ccccc3)n1)COCC2 [Compound 4, 1-[4-(benzylamino)-5H,7H,8H-pyrano[4,3-d]pyrimidin-2-yl]-2-methyl-1H-indole-4-carboxamide] | 18.7 | 1.8 | 6.4 | 3.0 | 2.4 | 39.8 | 1.3 | 2.2 | 3.8 | 4.8 | 2.0 | 1.8 | 3.2 | 3.7 | 20.0 | 50.3 | 16.5 | 60.7 | 3.1 | 8.7 | Fold Change in GI50 Compared to Parental Cell Line [21]: 2.7 fold; Fold Change in GI50 Compared to Parental Cell Line [22]: 5.9 fold; Fold Change in GI50 Compared to Parental Cell Line [23]: 11.8 fold
